Measurements as given in EP4755889A1, “COMPOUND FOR DETECTING AMYLOID-BETA OLIGOMER AND METHOD FOR DIAGNOSING DEGENERATIVE BRAIN DISEASE USING SAME” (Amyloid Solution Inc., priority 2024, dated 2025).

Columns and labels:
[1] = molecular target: T1, Aβ1-42 oligomers (Homo sapiens, UniProt P05067); experiment: Selectivity for Aβ variant oligomers (fluorescence); assay type: binding; conditions: oligomeric Aβ variants 10 µM each; IK15j (10 µM)
T1 construct: Aβ1-42 peptide was aggregated at 37 °C for 8 hours
Experimental: Accordingly, Aβ variant oligomers were prepared and incubated with IK15j to investigate the selectivity of the compound for Aβ variants. Briefly, samples of oligomeric Aβ1-40, Aβ1-42, and AβpE3-42 (10 µM each) were each treated with IK15j (10 µM), and the fluorescence intensity of each Aβ variant sample was measured.

[2] = system: Aβn-(n+5) (n = 1 to 37); experiment: Mapping Amyloid Plate (MAP): binding to immobilized Aβ1-42 hexamer fragments; conditions: MAP treated with IK15j for 24 hours
Experimental: A Mapping Amyloid Plate (MAP) for investigating the target site of the compound of the present disclosure on Aβ1-42 fragments or Aβ1-42 oligomers was prepared with reference to Korean Patent Application No. 10-2023-0133625, which is incorporated herein by reference in its entirety.
Briefly, to remove the bovine serum albumin coating from the plate, each well of the plate was washed three times with 200 µL of wash buffer (0.1 M sodium phosphate, 0.15 M sodium chloride, 0.05 % Tween-20, pH 7.2). Full-length and fragmented peptides of Aβ1-42 were individually dissolved in DMSO to prepare […] stock solutions, which were then diluted with binding buffer (0.1 M sodium phosphate, 0.15 M sodium chloride, 10 mM EDTA, pH 7.2) to prepare 50 µg/mL peptide solutions (5 % DMSO). 100 µL of the peptide solution was added to each well and allowed to react with the maleimide at room temperature overnight. After peptide immobilization, unbound peptides were removed by washing three times with 200 µL of wash buffer. […]
Two conditions were prepared to confirm whether the compound of the present disclosure targets the structure or the sequence of Aβ oligomers. […] The fluorescence intensity of both plates was measured using a microplate reader (λex = 285 nm/λem = 475 nm). […]

[3] = system: insoluble plaques in the 5XFAD mouse brain; experiment: Brain staining of AD mouse model with compound and anti-Aβ antibody 6E10; conditions: 5XFAD brain sections; co-staining with 6E10
Experimental: Mouse brain tissues were fixed in 4 % paraformaldehyde (Biosesang, Korea) at 4 °C overnight and then cryoprotected by immersion in 30 % sucrose for 48 hours. Brain sections (25 µm) were cut using a cryostat (CM1860, Leica) and mounted on slides. The brain tissue sections were treated with the compound of the present disclosure (500 µM) overnight at room temperature. After washing with 1X PBS, antigen retrieval for the fixed brain sections was performed in 1X PBS (Gibco, Korea) containing 1 % SDS (Biosesang, Korea) for 10 minutes, followed by blocking with 20 % horse serum in 1X PBS. After blocking for 1 hour, the slides were incubated with mouse monoclonal antibody 6E10 (1:200, BioLegend, USA) at room temperature for 1 hour. […] After staining the cortical and hippocampal regions of the fixed brain, each brain slide was visualized using a fluorescence microscope (DM500, Leica) equipped with filter cubes containing excitation and emission filters: N2.1 filter cube for detecting 6E10 staining (Excitation filter: BP 515-560; Dichromatic mirror: 580; Emission filter: LP 590) and L5 filter cube for detecting the compound of the present disclosure (Excitation filter: BP 480/40; Dichromatic mirror: 505; Emission filter: BP 527/30). […]

[4] = molecular target: T2, Aβ oligomers (Homo sapiens, UniProt P05067); experiment: Detection of Aβ oligomers spiked into human plasma; assay type: binding; conditions: IK15j (100 µM) for 8 hours
T2 construct: Aβ1-42 peptide was aggregated at 37 °C for 8 hours
Experimental: Aβ1-42 peptide (1,000, 100, 10, 1, 0.1, 0.01, and 0.001 pg/mL) was aggregated at 37 °C for 8 hours and added to human plasma (Sigma-Aldrich, USA). Then, each plasma sample was treated with the compound of the present disclosure (100 µM) for 8 hours at room temperature. The signal of each sample was detected using a microplate reader (λex = 285 nm / λem = 475 nm).
To investigate whether the compound of the present disclosure interacts with Aβ oligomers in plasma, Aβ oligomers were spiked into human plasma (at 100, 10, 1, 0.1, 0.01, 0.001, and 0 pg/mL) and treated with IK15j (100 µM) for 8 hours, as described in Reference Example 9.

T2 sequence (P05067 672-713): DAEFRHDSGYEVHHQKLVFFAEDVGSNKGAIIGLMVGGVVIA
T1 sequence (P05067 672-713): as above

fluorescence intensity in the presence of Aβ1-42 oligomers compared to Aβ1-40 or AβpE3-42 oligomers [1]: increased markedly | signal across all Aβ fragments ([2]; heatmap): relatively low across all fragments | signal in spiked human plasma compared to blank human plasma (0 pg/mL) ([4]; 1 pg/mL Aβ oligomers spiked): increased significantly | increase in fluorescence intensity compared to the control ([4]; 10-100 pg/mL Aβ spiked human plasma samples): 52%
Structure (SMILES): Cc1ccc2c(c1)c(-c1ccccc1)cn1c(C)cc(C#N)c21 [IK15j, 3,8-dimethyl-6-phenylpyrrolo[2,1-a]isoquinoline-1-carbonitrile]
signal in Aβ fragments compared to Aβ1-42 [2]: increase in IK15j signal was observed in 10 Aβ fragments (Aβ14-19 to Aβ23-28) | signal in hippocampal and cortical regions (brain staining) [3]: no signal
